Reference: patent publication US12441768B2, “Compositions and methods for treating endometriosis” (EndoMet Biosciences, Inc., priority 2018, dated 2025)
Where a SMILES comes first, the peptide text is derived from it.

Columns and labels:
[1] = target: Wnt-responsive promoter (TCF/LEF); assay: Wnt-dependent luciferase reporter assay; type: cell-based, murine
Summary of the method: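 EC50 (uM) derived from inhibition of luminescence in Wnt3a-stimulated murine 3T3 cells expressing luciferase under a TCF/LEF promoter, with peptides added across a concentration range and vehicle as control.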

β-catenin = target: T1, β-catenin (Homo sapiens, UniProt P35222); assay: KD50 measurement using competitive fluorescence polarization (FP) with labelled TCF4; type: binding; conditions: fluorescence polarization, β-catenin; for Kd: read-out: β-Cat FP KD
T1 sequence (P35222 1-781): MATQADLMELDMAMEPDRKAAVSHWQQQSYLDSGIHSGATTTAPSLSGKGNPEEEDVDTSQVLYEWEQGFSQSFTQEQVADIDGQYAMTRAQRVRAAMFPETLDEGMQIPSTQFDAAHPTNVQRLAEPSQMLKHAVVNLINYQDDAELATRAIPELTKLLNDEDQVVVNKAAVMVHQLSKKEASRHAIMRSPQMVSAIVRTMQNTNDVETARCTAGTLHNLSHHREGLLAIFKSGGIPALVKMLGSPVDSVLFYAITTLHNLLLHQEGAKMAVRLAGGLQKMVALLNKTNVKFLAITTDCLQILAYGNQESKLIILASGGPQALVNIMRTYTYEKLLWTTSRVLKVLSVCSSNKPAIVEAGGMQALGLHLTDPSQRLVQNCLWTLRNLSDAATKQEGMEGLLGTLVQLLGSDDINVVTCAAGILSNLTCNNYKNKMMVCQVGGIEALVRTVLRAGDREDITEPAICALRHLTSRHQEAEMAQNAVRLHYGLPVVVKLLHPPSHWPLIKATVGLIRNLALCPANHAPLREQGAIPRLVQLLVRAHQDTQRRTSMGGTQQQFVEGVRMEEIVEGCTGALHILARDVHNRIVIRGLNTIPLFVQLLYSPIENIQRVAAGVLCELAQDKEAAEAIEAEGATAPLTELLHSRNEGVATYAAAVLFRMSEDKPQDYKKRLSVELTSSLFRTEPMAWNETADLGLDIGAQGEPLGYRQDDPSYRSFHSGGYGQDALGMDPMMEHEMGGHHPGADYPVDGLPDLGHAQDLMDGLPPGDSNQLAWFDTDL
Summary of the method: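 Competitive FP in which unlabelled inhibitor (10 nM to 30 uM dilution series) displaces 5 nM labelled TCF4 from 100 nM β-catenin, room temperature. Read-out ex 470 nm, em 520 nm; experiment repeated three times.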

in vitro = conditions: % Viability non-Wnt responsive cells

SMILES	EC50 [1] [µM]	Kd (β-catenin) [µM]	viability (in vitro) [%]	β-Cat FP Hill slope (β-catenin)
CC[C@H](C)[C@H](NC(=O)[C@H](CC(C)C)NC(=O)[C@H](Cc1ccccc1)NC(=O)[C@H](Cc1c[nH]c2ccccc12)NC(=O)[C@H](CCSC)NC(=O)[C@H](CCCNC(=N)N)NC(=O)[C@H](CO)NC(=O)[C@@H](N)CCSC)C(=O)N[C@@H](CO)C(=O)N[C@@H](Cc1ccccc1)C(=O)N[C@@H](Cc1c[nH]c2ccccc12)C(=O)N(C)[C@@H](C)C(=O)NCC(=O)O [compound 16] (HELM PEPTIDE1{M.S.R.M.W.F.L.I.S.F.W.[meA].G}$$$$V2.0)	15 to 22.5	> 30	92	–
CC[C@H](C)[C@H](NC(=O)[C@H](CC(C)C)NC(=O)[C@H](Cc1ccccc1)NC(=O)[C@H](Cc1c[nH]c2ccccc12)NC(=O)[C@@H](N)CCSC)C(=O)N[C@@H](CO)C(=O)N[C@@H](Cc1ccccc1)C(=O)N[C@@H](Cc1c[nH]c2ccccc12)C(=O)NCC(=O)O [compound 17] (H-MWFLISFWG-OH)	< 7.5	0.4 to 1	98	1.66
CC[C@H](C)[C@@H]1NC(=O)[C@H](CO)NC(=O)[C@H](CCC(=O)O)NC(=O)[C@H](C)N(C)C(=O)[C@@H](N)CCCCNC(=O)CNC(=O)[C@H](Cc2c[nH]c3ccccc23)NC(=O)[C@H](C(C)C)NC(=O)[C@H](CCCNC(=N)N)NC(=O)[C@H](CCC(N)=O)NC(=O)[C@H](C(C)C)NC(=O)[C@H](Cc2c[nH]cn2)NC(=O)[C@H](CCC(=O)O)NC(=O)[C@H](CC(=O)O)NC(=O)[C@H](CC(C)C)NC1=O [compound 18] (HELM PEPTIDE1{K.[meA].E.S.I.L.D.E.H.V.Q.R.V.W.G}$PEPTIDE1,PEPTIDE1,1:R3-15:R2$$$V2.0; bridges inferred)	> 30	> 30	90.2	–
CC[C@H](C)[C@@H]1NC(=O)[C@H](CO)NC(=O)[C@H](CCC(N)=O)NC(=O)[C@H](C)N(C)C(=O)[C@@H](N)CCCCNC(=O)CNC(=O)[C@H](Cc2c[nH]c3ccccc23)NC(=O)[C@H](C(C)C)NC(=O)[C@H](CCCNC(=N)N)NC(=O)[C@H](CCC(N)=O)NC(=O)[C@H](C(C)C)NC(=O)[C@H](Cc2c[nH]cn2)NC(=O)[C@H](CCC(=O)O)NC(=O)[C@H](CC(=O)O)NC(=O)[C@H](CC(C)C)NC1=O [compound 19] (HELM PEPTIDE1{K.[meA].Q.S.I.L.D.E.H.V.Q.R.V.W.G}$PEPTIDE1,PEPTIDE1,1:R3-15:R2$$$V2.0; bridges inferred)	> 30	> 30	104	–
CC[C@H](C)[C@@H]1NC(=O)[C@H](CO)NC(=O)[C@H](CCC(N)=O)NC(=O)[C@H](C)N(C)C(=O)[C@H](Cc2c[nH]c3ccccc23)NC(=O)[C@@H](N)CCCCNC(=O)CNC(=O)[C@H](Cc2c[nH]c3ccccc23)NC(=O)[C@H](C(C)C)NC(=O)[C@H](CCCNC(=N)N)NC(=O)[C@H](CCC(N)=O)NC(=O)[C@H](C(C)C)NC(=O)[C@H](Cc2c[nH]cn2)NC(=O)[C@H](CCC(N)=O)NC(=O)[C@H](CC(N)=O)NC(=O)[C@H](CC(C)C)NC1=O [compound 20] (HELM PEPTIDE1{K.W.[meA].Q.S.I.L.N.Q.H.V.Q.R.V.W.G}$PEPTIDE1,PEPTIDE1,1:R3-16:R2$$$V2.0; bridges inferred)	> 30	> 30	106	–
CC[C@H](C)[C@H](NC(=O)[C@H](CO)NC(=O)[C@H](CCC(=O)O)NC(=O)[C@H](Cc1c[nH]c2ccccc12)NC(=O)[C@@H](N)CCSC)C(=O)N[C@@H](CC(C)C)C(=O)N[C@@H](CC(=O)O)C(=O)N[C@@H](CCC(=O)O)C(=O)N[C@@H](Cc1c[nH]cn1)C(=O)N[C@@H](CCSC)C(=O)N[C@@H](CCC(N)=O)C(=O)N[C@@H](CCCNC(=N)N)C(=O)N[C@H](C(=O)N[C@@H](Cc1c[nH]c2ccccc12)C(=O)N[C@@H](CCCNC(=N)N)C(=O)NCC(=O)O)C(C)C [compound 23] (H-MWESILDEHMQRVWRG-OH)	> 30	< 0.4	98.9	0.71
CC[C@H](C)[C@@H]1NC(=O)[C@H](CC(C)C)NC(=O)[C@H](Cc2ccccc2)NC(=O)[C@H](Cc2c[nH]c3ccccc23)NC(=O)[C@H](CCSC)NC(=O)[C@H](CCCNC(=N)N)NC(=O)[C@H](CO)NC(=O)[C@H](CCSC)NC(=O)[C@@H](N)CCCCNC(=O)CNC(=O)[C@H](CCCNC(=N)N)NC(=O)[C@H](Cc2c[nH]c3ccccc23)NC(=O)[C@H](Cc2ccccc2)NC(=O)[C@H](CO)NC1=O [compound 24] (HELM PEPTIDE1{K.M.S.R.M.W.F.L.I.S.F.W.R.G}$PEPTIDE1,PEPTIDE1,1:R3-14:R2$$$V2.0; bridges inferred)	> 30	< 0.4	96.8	1
CC[C@H](C)[C@@H]1NC(=O)[C@H](Cc2c[nH]cn2)NC(=O)[C@H](CCC(=O)O)NC(=O)[C@H](Cc2ccccc2)NC(=O)[C@H](Cc2c[nH]c3ccccc23)NC(=O)[C@H](CO)NC(=O)[C@H]([C@@H](C)CC)NC(=O)[C@H](C)N(C)C(=O)[C@H](CC(C)C)NC(=O)[C@@H]2CCCN2C(=O)[C@H](CCSC)NC(=O)[C@@H](N)CCCCNC(=O)CNC1=O [compound 29] (HELM PEPTIDE1{K.M.P.L.[meA].I.S.W.F.E.H.I.G}$PEPTIDE1,PEPTIDE1,1:R3-13:R2$$$V2.0; bridges inferred)	> 30	0.4 to 1	107	1.72
CC[C@H](C)[C@@H]1NC(=O)[C@H](CO)NC(=O)[C@H](CCC(=O)O)NC(=O)[C@H](C)N(C)C(=O)[C@H](CCSC)NC(=O)[C@@H](N)CCCCNC(=O)CNC(=O)[C@H](Cc2c[nH]c3ccccc23)NC(=O)[C@H](C(C)C)NC(=O)[C@H](CCCNC(=N)N)NC(=O)[C@H](CCC(N)=O)NC(=O)[C@H](C(C)C)NC(=O)[C@H](Cc2c[nH]cn2)NC(=O)[C@H](CCC(=O)O)NC(=O)[C@H](CC(=O)O)NC(=O)[C@H](CC(C)C)NC1=O [compound 30] (HELM PEPTIDE1{K.M.[meA].E.S.I.L.D.E.H.V.Q.R.V.W.G}$PEPTIDE1,PEPTIDE1,1:R3-16:R2$$$V2.0; bridges inferred)	> 30	1 to 10	106	0.7
CC[C@H](C)[C@H](NC(=O)[C@H](CC(C)C)NC(=O)[C@H](Cc1ccccc1)NC(=O)[C@H](Cc1c[nH]c2ccccc12)NC(=O)[C@@H](N)CCSC)C(=O)N[C@@H](CS)C(=O)N[C@@H](Cc1ccccn1)C(=O)N[C@@H](Cc1c[nH]c2ccccc12)C(=O)NCC(=O)O [compound 148] (HELM PEPTIDE1{M.W.F.L.I.C.[O=C([C@H](Cc1ccccn1)N[*:1])[*:2]].W.G}$$$$V2.0)	7.5 to 15	0.4 to 1	95.5	0.7
CC[C@@H](C)[C@H]1NC(=O)[C@@H](CC(C)C)NC(=O)[C@@H](Cc2ccccc2)NC(=O)[C@H](Cc2c[nH]c3ccccc23)NC(=O)[C@@H](CCSC)NC(=O)CCCCCCCCCCCNC(=O)C[C@@H](C(=O)O)NC(=O)[C@H](Cc2c[nH]c3ccccc23)NC(=O)[C@@H](Cc2ccccc2)NC(=O)[C@H](CS)NC1=O [compound 190] (HELM PEPTIDE1{[O=C(CCCCCCCCCCCN[*:1])[*:2]].[dM].W.[dF].[dL].[dI].C.[dF].W.D}$PEPTIDE1,PEPTIDE1,1:R1-10:R3$$$V2.0)	< 7.5	0.4 to 1	99.6	1.92
